This is an account of results in patent US11524960B2, “Heterobicyclic inhibitors of MAT2A and methods of use for treating cancer” (AGIOS PHARMACEUTICALS, INC., priority 2018, dated 2022).

For test [1], the system named is SAM in HCT116 human colon carcinoma cell line engineered to delete the MTAP gene (MTAP −/−). Nature of the test: Cellular assay of target engagement (SAM) by LC-MS/MS. Format: cell-based. As to conditions: Homo sapiens, HCT-116, 72 h, IC50 score, read-out: Cell 72 h SAM Inhibition (MTAP −/−; Example 276). The procedure:
Measurement of MAT2A activity in cells was made by direct quantitation of the abundance of the product of its enzymatic activity, SAM. Cancer cells were treated with candidate MAT2A inhibitors for a suitable incubation period, and the cells were then lysed using a reagent which quenched any further enzyme activity. Soluble metabolites including SAM were collected and SAM itself was directly measured from the lysate using quantitative LC-MS/MS.
A typical assay was performed using an HCT116 human colon carcinoma cell line which was genetically engineered to delete the MTAP gene (commercially available from Horizon Discovery). This cell line was utilized because it was determined that loss of the MTAP gene predicts sensitivity to MAT2A inhibitors. Cells were plated in 96-well dishes at appropriate cell density. Following 24 hours, cells were then treated with the candidate MAT2A inhibitor. Prior to addition to cells, the compound was first serially diluted in 100% DMSO, typically as a 3-fold serial dilution starting at 500× top dose with 10 dose points including DMSO only control. Compound was then transferred to a working stock plate in cell culture media by adding 5 μl of compound in DMSO to 495 μl of cell culture media. This working stock was then added to cells via a further 5-fold dilution, by adding 25 μl of working stock to 100 μl of cells in culture media. Following compound addition, cells were incubated at 37° C./5% CO2 for 72 hrs.
To quantitate SAM levels following compound treatment, cells were gently washed once in Ammonium Carbonate buffer (75 mM at pH 7.4), placed on dry ice, and lysed with metabolite extraction buffer (80% cold methanol and 20% water (v/v) with acetic acid at 1 M final concentration with 200 ng/mL deuterated d3-SAM as internal control). Following centrifugation at 4° C. at 3,200 rpm for 30 minutes, the supernatant was collected and stored at −80° C. until analysis by Liquid Chromatography with tandem Mass Spectrometry (LC-MS/MS). LC-MS/MS analysis was performed using an API6500 Mass Spectrometer (Sciex, Framingham, Mass., USA) operating in positive ion spray mode and equipped with a Waters UPLC Acquity (Waters, Milford, Mass., USA) BEH Amide column. Multiple Reaction Monitoring data was acquired for SAM and the d3-SAM standard, using a mass transition pair at m/z 399.2→250.1 and 402.2→250.1, respectively. In a typical LC-MS/MS analysis, the initial flow rate was 0.5 ml/min of 25% mobile phase A (acetonitrile and water at 5:95 (v/v) with 1% formic acid and 10 mM ammonium acetate) and 75% mobile phase B (acetonitrile and water at 95:5 (v/v) with 1% formic acid and 10 mM ammonium acetate), 0.2-0.5 minutes with 75%-35% mobile phase B, 25%-65% mobile phase A, at 0.5 min 65% mobile phase A and 35% mobile phase B, 1.0-1.1 minutes with 35%-75% mobile phase B, 65%-25% mobile phase A, at 1.1 min 25% mobile phase A and 75% mobile phase B with a total run time of 1.5 minutes.

In the next test the test system is HCT116 MTAP+/+. Put plainly: Inhibition of cellular proliferation (Cell Titer Glo), HCT116 MTAP+/+. Format: cell-based, human. As to conditions: Homo sapiens, HCT-116, 96 h, 4 days, IC50 score, read-out: 4 Day Relative Growth Inhibition (MTAP +/+; Example 277). The procedure: (§1) Test compound impact on cancer cell growth was assessed by treating cancer cells with compound for 4 days and then measuring proliferation using an ATP-based cell proliferation readout (Cell Titer Glo, Promega Corporation).
(§2) In a typical assay an isogenic pair of HCT116 human colon carcinoma cell lines which vary only in MTAP deletion status (HCT116 MTAP+/+ and HCT116 MTAP−/−) were plated in 96-well dishes at appropriate cell density. Following 24 hours, cells were then treated with the candidate MAT2A inhibitor. Prior to addition to cells, the compound was first serially diluted in 100% DMSO, typically as a 3-fold serial dilution starting at 500× top dose with 10 dose points including DMSO only control. Compound was then transferred to a working stock plate in cell culture media by adding 5 μl of compound in DMSO to 495 μl of cell culture media. This working stock was then added to cells via a further 5-fold dilution, by adding 25 μl of working stock to 100 μl of cells in culture media. Following compound addition, cells were incubated at 37° C./5% C02 for 4 days.
(§3) To measure inhibition of cellular proliferation, cells were allowed to equilibrate to room temperature for 30 minutes, and were then treated with 125 μl of Cell Titer Glo reagent. The plate was then covered with aluminum foil and shaken for 15 minutes to ensure complete mixing and full cell lysis. Luminescent signal was then measured using a plate-based luminometer Veritas version 1.9.2 using ATP standard curve to confirm assay reproducibility from run to run. This luminescence measure was converted to a proliferation index by subtracting from each data point the ATP luminescence signal measured from a bank (no cells) well and dividing by the ATP luminescence signal measured in 0.2% DMSO control well adjusted for signal in blank well. Compound activity was then represented as a percentage change in proliferation relative to a within-plate DMSO control against log10 of compound concentration in molar (M) units.

In a further test the test system is HCT116 MTAP−/−. Put plainly: Inhibition of cellular proliferation (Cell Titer Glo), HCT116 MTAP−/−. As to conditions: Homo sapiens, HCT-116, 96 h, 4 days, IC50 score, read-out: 4 Day Relative Growth Inhibition (MTAP −/−; Example 277). Format: cell-based, human. The procedure: as §1, §2, §3
The next test addresses T1, MAT2A homodimer (Homo sapiens, UniProt P31153).
T1 construct: inferred from Ni sepharose purification and imidazole elution; made in house; host or cells: Sf9 insect cells, recombinant baculovirus (Bac to Bac, pFASTBAC1)
Put plainly: Biochemical assay: inhibition of MAT2A (phosphate release, PiColorLock Gold). As to conditions: MAT2A IC50 score; read-out: Enzyme Inhibition (Example 275). Summed up:
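Baculovirus/Sf9-expressed, Ni-purified MAT2A at 4 µg/mL was preincubated with compound for 60 min at 25 °C in 50 mM Tris pH 8.0, 50 mM KCl, 15 mM MgCl2, 0.3 mM EDTA, 0.005% BSA. Substrate mix (500 μM ATP, 400 μM L-methionine) was added and the reaction ran 60 min at 25 °C. Phosphate released stoichiometrically with SAM was measured colorimetrically against a phosphate standard curve.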

T1 sequence (P31153 whole entry): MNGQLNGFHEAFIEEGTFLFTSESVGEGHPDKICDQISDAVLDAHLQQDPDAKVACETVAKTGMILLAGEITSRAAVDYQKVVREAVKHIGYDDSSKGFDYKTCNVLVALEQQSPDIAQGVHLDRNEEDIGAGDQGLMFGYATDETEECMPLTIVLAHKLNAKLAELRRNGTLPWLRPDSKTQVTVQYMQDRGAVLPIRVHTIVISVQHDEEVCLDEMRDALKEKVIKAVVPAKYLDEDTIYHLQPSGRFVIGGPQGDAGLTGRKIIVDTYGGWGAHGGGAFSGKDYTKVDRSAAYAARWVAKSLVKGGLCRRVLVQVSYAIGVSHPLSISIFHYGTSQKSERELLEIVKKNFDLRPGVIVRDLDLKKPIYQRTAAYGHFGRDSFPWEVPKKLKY

As to `CCOc1ccc2cn(-c3ccc(OC)cc3)c(=O)c(-c3ccc(OC(F)F)nc3)c2n1` [Example 129-A], the IC50 in test [1] is less than 100 nM; in the test with HCT116 MTAP+/+, 100 to 10000 nM; with HCT116 MTAP−/− it was 100 to 10000 nM; at MAT2A homodimer, less than 100 nM.
As to `COc1ccc(-c2c(=O)n(-c3ccc4c(c3)OCCO4)cc3cnc(NCC(F)(F)F)nc23)cc1` [Example 177, 6-(2,3-dihydrobenzo[b][1,4]dioxin-6-yl)-8-(4-methoxyphenyl)-2-((2,2,2-trifluoroethyl)amino)pyrido[4,3-d]pyrimidin-7(6H)-one], the IC50 in test [1] was less than 100 nM; with HCT116 MTAP+/+ it was greater than 10000 nM; with HCT116 MTAP−/−, 100 to 10000 nM; at MAT2A homodimer, less than 100 nM.
Regarding `CCOc1ccc2cn(-c3ccc4nn(C)cc4c3)c(=O)c(-c3ccc(C(F)(F)F)nc3)c2n1` [Example 220, 2-ethoxy-6-(2-methyl-2H-indazol-5-yl)-8-(6-(trifluoromethyl)pyridin-3-yl)-1,6-naphthyridin-7(6H)-one], the IC50 in test [1] was less than 100 nM; in the test on HCT116 MTAP+/+, 100 to 10000 nM; with HCT116 MTAP−/−, less than 100 nM; on MAT2A homodimer, less than 100 nM.
In the case of `Cn1cc2cc(-n3cc4cnc(NCC(F)(F)F)nc4c(-c4ccc(OC(F)(F)F)cc4)c3=O)ccc2n1` [Example 160, 6-(2-methyl-2H-indazol-5-yl)-2-((2,2,2-trifluoroethyl)amino)-8-(4-(trifluoromethoxy)phenyl)pyrido[4,3-d]pyrimidin-7(6H)-one], the IC50 was less than 100 nM in test [1], greater than 10000 nM in the test on HCT116 MTAP+/+, less than 100 nM with HCT116 MTAP−/− and less than 100 nM at MAT2A homodimer.
Turning to `COc1ccc(-n2cc3cnc(NCC(F)(F)F)nc3c(-c3ccc(CCO)cc3)c2=O)cc1` [Example 205, 8-(4-(2-hydroxyethyl)phenyl)-6-(4-methoxyphenyl)-2-(2,2,2-trifluoroethylamino)pyrido[4,3-d]pyrimidin-7(6H)-one], the IC50 in test [1] was less than 100 nM; in the test with HCT116 MTAP+/+, greater than 10000 nM; with HCT116 MTAP−/− it was 100 to 10000 nM; on MAT2A homodimer, less than 100 nM.
On to `CCOc1ccc2cn(-c3ccc4ncn(C)c4c3)c(=O)c(-c3ccc(C4CC4)nc3)c2n1` [Example 228, 8-(6-cyclopropylpyridin-3-yl)-2-ethoxy-6-(1-methyl-1H-benzo[d]imidazol-6-yl)-1,6-naphthyridin-7(6H)-one], for which the IC50 is less than 100 nM in test [1], 100 to 10000 nM with HCT116 MTAP+/+, less than 100 nM in the test on HCT116 MTAP−/− and less than 100 nM at MAT2A homodimer.
Regarding `CCOc1ccc2cn(-c3ccc4ncn(C)c4c3)c(=O)c(-c3ccc(C(F)(F)F)cc3)c2n1` [Example 227, 2-ethoxy-6-(1-methyl-1H-benzo[d]imidazol-6-yl)-8-(4-(trifluoromethyl)phenyl)-1,6-naphthyridin-7(6H)-one], the IC50 was less than 100 nM in test [1], 100 to 10000 nM in the test with HCT116 MTAP+/+, less than 100 nM in the test with HCT116 MTAP−/− and less than 100 nM at MAT2A homodimer.
For the compound `Cc1c2cc(-n3cc4ccc(NCC(F)(F)F)nc4c(-c4ccc(Cl)cc4)c3=O)ccc2nn1C` [Example 237, 8-(4-chlorophenyl)-6-(2,3-dimethyl-2H-indazol-5-yl)-2-(2,2,2-trifluoroethylamino)-1,6-naphthyridin-7(6H)-one], the IC50 was less than 100 nM in test [1], greater than 10000 nM in the test on HCT116 MTAP+/+, less than 100 nM in the test with HCT116 MTAP−/− and less than 100 nM at MAT2A homodimer.
Turning to `COc1ccc(-n2cc3cnc(NCC(F)(F)F)nc3c(-c3ccc(Cl)cc3)c2=O)cc1` [Example 193, 8-(4-chlorophenyl)-6-(4-methoxyphenyl)-2-((2,2,2-trifluoroethyl)amino)pyrido[4,3-d]pyrimidin-7(6H)-one], the IC50 in test [1] is 100 to 1000 nM; in the test on HCT116 MTAP+/+, greater than 10000 nM; in the test with HCT116 MTAP−/− it was 100 to 10000 nM; at MAT2A homodimer, less than 100 nM.
Turning to `CC(C)Nc1ncc2cn(-c3ccc4ncccc4c3)c(=O)c(-c3ccc(OC(F)F)cc3)c2n1` [Example 182, 8-(4-(difluoromethoxy)phenyl)-2-(isopropylamino)-6-(quinolin-6-yl)pyrido[4,3-d]pyrimidin-7(6)-one], the IC50 in test [1] was less than 100 nM; in the test with HCT116 MTAP+/+ it was greater than 10000 nM; in the test on HCT116 MTAP−/−, 100 to 10000 nM; at MAT2A homodimer, less than 100 nM.
For `Cn1cc2cc(-n3cc4cnc(NCC(F)(F)F)nc4c(-c4ccc(Cl)cc4)c3=O)ccc2n1` [Example 123, 8-(4-chlorophenyl)-6-(2-methyl-2H-indazol-5-yl)-2-((2,2,2-trifluoroethyl)amino)pyrido[4,3-d]pyrimidin-7(6H)-one], the IC50 was less than 100 nM in test [1], 100 to 10000 nM with HCT116 MTAP+/+, less than 100 nM in the test on HCT116 MTAP−/− and less than 100 nM on MAT2A homodimer.
Take `CCOc1ncc2cn(-c3ccc4ncn(C)c4c3)c(=O)c(-c3ccc(Cl)cc3)c2n1` [Example 269, 8-(4-chlorophenyl)-2-ethoxy-6-(1-methyl-1H-benzo[d]imidazol-6-yl)pyrido[4,3-d]pyrimidin-7(6H)-one]: the IC50 was less than 100 nM in test [1], greater than 10000 nM in the test on HCT116 MTAP+/+, 100 to 10000 nM in the test with HCT116 MTAP−/− and less than 100 nM on MAT2A homodimer.
With `Cn1cc2cc(-n3cc4ccc(CCC(F)(F)F)nc4c(-c4ccc(Cl)cc4)c3=O)ccc2n1` [Example 138-A, 8-(4-chlorophenyl)-6-(2-methyl-2H-indazol-5-yl)-2-(3,3,3-trifluoropropyl)-1,6-naphthyridin-7(6H)-one], the IC50 in test [1] is 100 to 1000 nM; with HCT116 MTAP+/+ it was 100 to 10000 nM; in the test with HCT116 MTAP−/−, 100 to 10000 nM; at MAT2A homodimer it was less than 100 nM.
As for `Cn1cc2cc(-n3cc4ccc(OCC(F)F)nc4c(-c4ccc(OC(F)F)nc4)c3=O)ccc2n1` [Example 123-A], the IC50 is less than 100 nM in test [1], 100 to 10000 nM in the test with HCT116 MTAP+/+, less than 100 nM with HCT116 MTAP−/− and less than 100 nM at MAT2A homodimer.
Consider `Cn1cc2cc(-n3cc4ccc(OCC(F)(F)F)nc4c(-c4ccc(C5CC5)nc4)c3=O)ccc2n1` [Example 113-A], for which the IC50 was less than 100 nM in test [1], 100 to 10000 nM with HCT116 MTAP+/+, less than 100 nM with HCT116 MTAP−/− and less than 100 nM at MAT2A homodimer.
